This assay deals with T1, human hepatic GK (Homo sapiens, UniProt P35557).
T1 construct: His6 (C); made in house; host or cells: E. coli
T1 sequence (P35557 1-466 isoform P35557-2): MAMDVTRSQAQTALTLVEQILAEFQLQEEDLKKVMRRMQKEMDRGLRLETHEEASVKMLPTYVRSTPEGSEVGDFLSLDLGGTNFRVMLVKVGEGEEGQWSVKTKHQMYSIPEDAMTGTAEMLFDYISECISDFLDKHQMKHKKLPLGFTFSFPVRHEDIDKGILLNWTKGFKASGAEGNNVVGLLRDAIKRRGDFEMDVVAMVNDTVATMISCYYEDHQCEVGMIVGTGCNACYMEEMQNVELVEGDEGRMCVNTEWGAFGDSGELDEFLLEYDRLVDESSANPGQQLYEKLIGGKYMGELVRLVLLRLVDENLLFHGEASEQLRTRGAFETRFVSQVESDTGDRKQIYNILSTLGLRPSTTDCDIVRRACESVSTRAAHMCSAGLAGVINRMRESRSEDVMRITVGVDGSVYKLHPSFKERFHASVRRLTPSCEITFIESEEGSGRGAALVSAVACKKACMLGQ
Kind of assay: GK activity measurement (G6PDH-coupled NADH production). Particulars: GK activation; 5 mM D-glucose. The format is biochemical. The protocol: The GK activity was determined not by direct measurement of the amount of glucose-6-phosphate produced by the enzyme reaction but by measurement of the amount of NADH produced by a […] reaction.
(Preparation of Recombinant GK)
Cloning of Human Hepatic GK and Human Pancreas GK and Acquisition of Recombinant Proteins
Based on a human hepatic GK sequence available from GeneBank (Accession Number: NM_033507) and a human pancreas GK sequence (Accession Number: NM_000162), PCR cloning was performed using Pyrobest DNA Polymerase (product of Takara Bio Inc.) with human hepatic cDNA (product of Clontech Laboratories, Inc.) and human pancreas cDNA (product of Clontech Laboratories, Inc.) used as templates. […]
The test compound was dissolved in DMSO in advance, and 2 μL of the prepared solution was added to 20 μL of a solution containing the HEPES buffer solution (pH 7.1), KCl, MgCl2, D-glucose, ATP, NAD, and dithiothreitol. […] The GK was added such that an increase in absorbance per minute in the presence of 5% DMSO was between 0.002 to 0.003. After the reaction was initiated, the increase in absorbance at 340 nm was measured for 15 minutes using a SPECTRAmax 190 microplate spectrophotometer (product of Molecular Devices Corporation), and the activity was evaluated using the increase in the first 10 minutes.

pEC50: −log10 of the molar value.

For orientation: pEC50 means the EC50 on a negative log10 scale, so that one unit is a factor of ten. The compound `CS(=O)(=O)c1ccc(/C(=C\[C@H]2C[C@@H](F)[C@@H](F)C2)C(=O)Nc2nccs2)cc1` [Compound 1A, (E)-3-[(1α,3α,4α)-3,4-difluorocyclopentyl]-2-[4-(methylsulfonyl)phenyl]-N-(thiazol-2-yl)acrylamide] had a pEC50 not below 6.00.

The values above are taken from patent US9452977B2, “Cyclopentylacrylamide derivative” (KYORIN PHARMACEUTICAL CO., LTD., priority 2008, dated 2016).
